From patent US20210069272A1, “METHODS FOR SKIN WHITENING, ULTRAVIOLET RADIATION PROTECTION AND SUPPRESSION OF GLYCATION USING GREEN MANGO EXTRACTS AND COMPOUNDS OBTAINED THEREFROM” (TCI CO., LTD., priority 2019, published 2021)

How the values were obtained:
[1] = test system: porcine collagen; experiment: Anti-glycation assay, AGEs formation due to collagen glycation with fructose; format: biochemical; conditions: 100 μg/mL aqueous solution, 50° C., 24 hours
Method: In order to evaluate the anti-glycation activity of the green mango extract, an anti-glycation assay was performed to determine the inhibitory effect of the green mango extract described in Example 1 on glycation of porcine collagen. Briefly, a 60 mg/mL collagen solution (containing 0.06% sodium azide) and a 1.5 M fructose solution were first prepared using a 200 mM phosphate buffer (pH 7.4). For collagen to undergo glycation, a mixture of 0.2 mL of the collagen solution and 0.2 mL of the fructose solution was mixed thoroughly with 0.2 mL of the green mango extract sample at 140, 70, 14, 1.4, or 0.14 mg/mL (diluted with deionized water), or mixed with deionized water (as a control). The reaction mixtures were incubated at 50° C. for 24 hours. Thereafter, aminoguanidine (AG, purchased from Sigma) was added to terminate the glycation reaction. […] The reaction mixtures were incubated at 50° C. for 24 hours, and the fluorescence intensity of each of the mixtures (0.1 mL) at 0 hours and 24 hours was measured to calculate the rate of AGEs formation due to collagen glycation.

[2] = test system: melanoma cells B16F10; experiment: Melanin production assay in melanoma cells B16F10; format: cell-based, mouse; conditions: 0.25 mg/mL, 48 hours
Method: The melanin levels in B 16F10 melanoma cells were determined according to procedures described below. Cells were harvested from the cell culture treated as indicated. The cells were washed with PBS and treated with trypsin for 3 minutes. The suspended cells were collected by centrifugation (400×g, 5 minutes), washed twice with PBS, and then resuspended in 200 μL of PBS. The cell suspension was frozen in liquid nitrogen for 10 minutes and then left at room temperature for about 30 minutes until completely thawed, followed by centrifugation (12,000 g, 3 minutes) to remove the supernatant. The remaining cell pellet was mixed thoroughly with 120 μL of 1 N sodium hydroxide aqueous solution, and heated at 60° C. for 1 hour to obtain a cell lysate containing dissolved melanin. 100 μL of the cell lysate was transferred to a 96-well plate, and the absorbance at 450 nm (OD450) was measured using an enzyme-linked immunosorbent assay (ELISA) reader (BioTek). The relative melanin level is calculated according to the following formula: Relative melanin level (%)=(OD450each group/OD450mock control)×100% In order to examine the effect of the green mango extract on melanin production, the melanoma cells B16F10 was assayed for melanin production after treatment with the green mango extract described in Example 1. […]

SMILES | AGEs formation compared to the control [1] | inhibitory effect on melanin production, green mango extract versus kojic acid at the same concentration [2]
O=C(OCC1OC(OC(=O)c2cc(O)c(O)c(O)c2)C(OC(=O)c2cc(O)c(O)c(O)c2)C(OC(=O)c2cc(O)c(O)c(O)c2)C1OC(=O)c1cc(O)c(O)c(O)c1)c1ccc(O)cc1 (stereo not drawn) [formula (I)] | about 60.2% | –
O=C(OCC1OC(OC(=O)c2cc(O)c(O)c(O)c2)C(OC(=O)c2cc(O)c(O)c(O)c2)C(OC(=O)c2cc(O)c(O)c(O)c2)C1OC(=O)c1cc(O)c(O)c(O)c1)c1cc(O)c(O)c(O)c1 (stereo not drawn) [formula (II)] | ~73.7% | –
O=c1cc(CO)occ1O [kojic acid] | – | comparable
